According to patent US12655107B2 (The United States of America, as represented by the …, priority 2018, dated 2026):
Where two headings read alike, the source gives them in different places.

Tests used:
A549 = assay: MTT cytotoxicity assay, A549; type: cell-based, human; details: 72 h, Table 7, read-out: GI50 ± SC (μM) A-49
Experimental: (§1) Cytotoxicity Assays. […] The cells were incubated with the tested compounds for 72 hours in a five-dose assay ranging from 0.01 to 100 μM concentration. After drug treatments, MTT solution was added to test the percentage growth of tumor cells.
(§2) The compounds were incubated with the cells for 72 hours in a five-dose assay ranging from 0.01 to 100 μM concentration. At the end of the incubation, the MTT solution was added to test the percentage growth of tumor cells.
(§3) For the drug treatment experiments, the cancer cells were treated with the compounds (predissolved in DMSO) at a five-dose assay ranging from 0.01 to 100 μM concentration. […] After 4 h incubation, the formazan crystal formed in the well was dissolved with […] of DMSO for optical density reading at 570 nm. The GI50 value was calculated by nonlinear regression analysis (GraphPad Prism).

SK-MEL-28 = assay: NCI-60 cytotoxicity; type: cell-based, human; details: NCI-60 Melanoma, 48 h
Experimental: (§4) Cell growth inhibition (GI50 in Table 3) was calculated relative to cells without compound treatment and the time zero control.
(§5) Regarding Table 8, according to the NCI established procedures, the cells were incubated with 67 or 50 for 48 hours and stained with sulforhodamine B dye.

MOLT-4 = assay: NCI-60 cytotoxicity; type: cell-based, human; details: NCI-60 Leukemia, 48 h
Experimental: as §4, §5

SW-620 = assay: NCI-60 cytotoxicity; type: cell-based, human; details: NCI-60 Colon Cancer, 48 h
Experimental: as §4, §5

HCT-15 = assay: NCI-60 cytotoxicity; type: cell-based, human; details: NCI-60 Colon Cancer, 48 h
Experimental: as §4, §5

SF-268 = assay: NCI-60 cytotoxicity; type: cell-based, human; details: NCI-60 CNS Cancer, 48 h
Experimental: as §4, §5

HT29 = assay: NCI-60 cytotoxicity; type: cell-based, human; details: NCI-60 Colon Cancer, 48 h
Experimental: as §4, §5

MDA-MB-468 = assay: NCI-60 cytotoxicity; type: cell-based, human; details: NCI-60 Breast Cancer, 48 h
Experimental: as §4, §5

OVCAR-4 = assay: NCI-60 cytotoxicity; type: cell-based, human; details: NCI-60 Ovarian Cancer, 48 h
Experimental: as §4, §5

SR = assay: NCI-60 cytotoxicity; type: cell-based, human; details: NCI-60 Leukemia, 48 h
Experimental: as §4, §5

SK-OV-3 = assay: NCI-60 cytotoxicity; type: cell-based, human; details: NCI-60 Ovarian Cancer, 48 h
Experimental: as §4, §5

OVCAR-3 = assay: NCI-60 cytotoxicity; type: cell-based, human; details: NCI-60 Ovarian Cancer, 48 h
Experimental: as §4, §5

U251 = assay: NCI-60 cytotoxicity; type: cell-based, human; details: NCI-60 CNS Cancer, 48 h
Experimental: as §4, §5

NCI-H322M = assay: NCI-60 cytotoxicity; type: cell-based, human; details: NCI-60 Non-Small Cell Lung Cancer, 48 h
Experimental: as §4, §5

UACC-257 = assay: NCI-60 cytotoxicity; type: cell-based, human; details: NCI-60 Melanoma, 48 h
Experimental: as §4, §5

MCF7 = assay: NCI-60 cytotoxicity; type: cell-based, human; details: NCI-60 Breast Cancer, 48 h
Experimental: as §4, §5

HOP-92 = assay: NCI-60 cytotoxicity; type: cell-based, human; details: NCI-60 Non-Small Cell Lung Cancer, 48 h
Experimental: as §4, §5

NCI-H226 = assay: NCI-60 cytotoxicity; type: cell-based, human; details: NCI-60 Non-Small Cell Lung Cancer, 48 h
Experimental: as §4, §5

EKVX = assay: NCI-60 cytotoxicity; type: cell-based, human; details: NCI-60 Non-Small Cell Lung Cancer, 48 h
Experimental: as §4, §5

DU-145 = assay: NCI-60 cytotoxicity; type: cell-based, human; details: read-out: GI50 (μM) DU-145; NCI-60 Prostate Cancer, 48 h
Experimental: as §4, §5

NCI-H460 = assay: NCI-60 cytotoxicity; type: cell-based, human; details: NCI-60 Non-Small Cell Lung Cancer, 48 h
Experimental: as §4, §5

M14 = assay: NCI-60 cytotoxicity; type: cell-based, human; details: NCI-60 Melanoma, 48 h
Experimental: as §4, §5

BT-549 = assay: NCI-60 cytotoxicity; type: cell-based, human; details: NCI-60 Breast Cancer, 48 h
Experimental: as §4, §5

A549/ATCC = assay: NCI-60 cytotoxicity; type: cell-based, human; details: NCI-60 Non-Small Cell Lung Cancer, 48 h
Experimental: as §4, §5

SK-MEL-5 = assay: NCI-60 cytotoxicity; type: cell-based, human; details: NCI-60 Melanoma, 48 h
Experimental: as §4, §5

SK-MEL-2 = assay: NCI-60 cytotoxicity; type: cell-based, human; details: NCI-60 Melanoma, 48 h
Experimental: as §4, §5

HCT116 [1] = assay: NCI-60 cytotoxicity; type: cell-based, human; details: NCI-60 Colon Cancer, 48 h
Experimental: as §4, §5

UO-31 = assay: NCI-60 cytotoxicity; type: cell-based, human; details: NCI-60 Renal Cancer, 48 h
Experimental: as §4, §5

786-0 = assay: NCI-60 cytotoxicity; type: cell-based, human; details: NCI-60 Renal Cancer, 48 h
Experimental: as §4, §5

ACHN = assay: NCI-60 cytotoxicity; type: cell-based, human; details: NCI-60 Renal Cancer, 48 h
Experimental: as §4, §5

COLO 205 = assay: NCI-60 cytotoxicity; type: cell-based, human; details: NCI-60 Colon Cancer, 48 h
Experimental: as §4, §5

SF-295 = assay: NCI-60 cytotoxicity; type: cell-based, human; details: NCI-60 CNS Cancer, 48 h
Experimental: as §4, §5

A498 = assay: NCI-60 cytotoxicity; type: cell-based, human; details: NCI-60 Renal Cancer, 48 h
Experimental: as §4, §5

NCI-H522 = assay: NCI-60 cytotoxicity; type: cell-based, human; details: NCI-60 Non-Small Cell Lung Cancer, 48 h
Experimental: as §4, §5

PC-3 = assay: NCI-60 cytotoxicity; type: cell-based, human; details: NCI-60 Prostate Cancer, 48 h
Experimental: as §4, §5

MCF-7 = assay: MTT cytotoxicity assay, MCF-7; type: cell-based, human
Experimental: as §2, §3

HCT116 [2] = assay: MTT cytotoxicity assay, HCT116; type: cell-based, human
Experimental: as §1, §2, §3

[3] = 72 h, Table 7, read-out: GI50 ± SC (μM) MCF-7
[4] = 72 h, Table 7, read-out: GI50 ± SC (μM) HCT116

## COc1cc2c(=O)n(CCN)c3c4cc5c(cc4ccc3c2cc1OC)OCO5 [Compound 67, 12-(2-aminoethyl)-2,3-dimethoxy-[1,3]dioxolo[4′,5′:4,5]benzo[1,2-c]phenanthridin-13(12-H)-one]
A549
  GI50: 0.98 ± 0.014 µM
SK-MEL-28
  GI50: 3.05 µM
MOLT-4
  GI50: 0.0633 µM
SW-620
  GI50: 0.243 µM
HCT-15
  GI50: 0.42 µM
SF-268
  GI50: 0.442 µM
HT29
  GI50: 0.168 µM
MDA-MB-468
  GI50: 0.157 µM
OVCAR-4
  GI50: 0.782 µM
SR
  GI50: 0.0907 µM
SK-OV-3
  GI50: 1.24 µM
OVCAR-3
  GI50: 0.826 µM
U251
  GI50: 0.26 µM
NCI-H322M
  GI50: 0.99 µM
UACC-257
  GI50: 1.9 µM
MCF7
  GI50: 0.164 µM
HOP-92
  GI50: 3.56 µM
NCI-H226
  GI50: 1.34 µM
EKVX
  GI50: 1.36 µM
DU-145
  GI50: 0.527 µM
NCI-H460
  GI50: 0.23 µM
M14
  GI50: 0.324 µM
BT-549
  GI50: 0.918 µM
A549/ATCC
  GI50: 0.584 µM
SK-MEL-5
  GI50: 0.614 µM
SK-MEL-2
  GI50: 3.01 µM
HCT116 [1]
  GI50: 0.285 µM
UO-31
  GI50: 0.35 µM
786-0
  GI50: 0.464 µM
ACHN
  GI50: 0.366 µM
COLO 205
  GI50: 0.29 µM
SF-295
  GI50: 0.279 µM
A498
  GI50: 1.23 µM
NCI-H522
  GI50: 0.0875 µM
PC-3
  GI50: 0.532 µM
MCF-7; [3]
  GI50: 0.1 ± 0.001 µM
HCT116 [2]; [4]
  GI50: 0.29 ± 0.019 µM

## CNCCn1c(=O)c2cc(OC)c(OC)cc2c2ccc3cc4c(cc3c21)OCO4 [Compound 50, 2,3-dimethoxy-12-(2-(methylamino)ethyl)-[1,3]dioxolo[4′5′:4,5]benzo[1,2-c]phenanthridin-13(12H)-one]
A549
  GI50: 0.97 µM
SK-MEL-28
  GI50: 0.573 µM
MOLT-4
  GI50: 0.0234 µM
SW-620
  GI50: 0.0658 µM
HCT-15
  GI50: 0.116 µM
SF-268
  GI50: 0.0903 µM
HT29
  GI50: 0.0508 µM
MDA-MB-468
  GI50: 0.0599 µM
OVCAR-4
  GI50: 0.154 µM
SR
  GI50: 0.0173 µM
SK-OV-3
  GI50: 0.157 µM
OVCAR-3
  GI50: 0.166 µM
U251
  GI50: 0.0394 µM
NCI-H322M
  GI50: 0.147 µM
UACC-257
  GI50: 0.122 µM
MCF7
  GI50: 0.0292 µM
HOP-92
  GI50: 0.184 µM
NCI-H226
  GI50: 0.172 µM
EKVX
  GI50: 0.202 µM
DU-145
  GI50: 0.13 µM
NCI-H460
  GI50: 0.0212 µM
M14
  GI50: 0.0581 µM
BT-549
  GI50: 0.202 µM
A549/ATCC
  GI50: 0.0948 µM
SK-MEL-5
  GI50: 0.0909 µM
SK-MEL-2
  GI50: 0.393 µM
HCT116 [1]
  GI50: 0.0515 µM
UO-31
  GI50: 0.104 µM
786-0
  GI50: 0.0703 µM
ACHN
  GI50: 0.0856 µM
COLO 205
  GI50: 0.0605 µM
SF-295
  GI50: 0.0346 µM
A498
  GI50: 0.127 µM
NCI-H522
  GI50: 0.0274 µM
PC-3
  GI50: 0.112 µM
MCF-7; [3]
  GI50: 0.09 µM
MCF-7; drug-resistance panel, read-out: GI50 ± SD (μM) Parental cell line MCF-7
  GI50: 0.1 ± 0.001 µM
i.p., dose to kill half of mice after 7 days
  median lethal dose (LD50): 192 mg/kg
mouse, in vivo, ip, 192 mg/kg
  mouse survival: three mice survived
Single i.p. dose 122.9 mg/kg, 7 days
  mouse survival: all mice survived
Single i.p. dose 153.6 mg/kg, 7 days
  mouse survival: four mice survived
Single i.p. dose 240 mg/kg, 7 days
  mouse survival: two mice survived
Single i.p. dose 300 mg/kg, 7 days
  mouse survival: All mice died within 5 days
HCT116 [2]; [4]
  GI50: 0.036 µM
HCT116 [2]; drug-resistance panel, read-out: GI50 ± SD (μM) Parental cell line HCT116
  GI50: 0.036 ± 0.003 µM
